Among the data in patent publication US20260138961A1, “MODULATORS OF MITOCHONDRIAL DNA REPLICATION” (Pretzel Therapeutics, Inc., priority 2022, published 2026) are IC50 values, retold here.

As usually defined, the IC50 is the concentration that gives 50% inhibition. High values mean lower potency, low ones higher potency.

The target in the test is T1, human POLγ 3′-5′ exonuclease activity (Homo sapiens, UniProt P54098).
T1 sequence (P54098 1-1239): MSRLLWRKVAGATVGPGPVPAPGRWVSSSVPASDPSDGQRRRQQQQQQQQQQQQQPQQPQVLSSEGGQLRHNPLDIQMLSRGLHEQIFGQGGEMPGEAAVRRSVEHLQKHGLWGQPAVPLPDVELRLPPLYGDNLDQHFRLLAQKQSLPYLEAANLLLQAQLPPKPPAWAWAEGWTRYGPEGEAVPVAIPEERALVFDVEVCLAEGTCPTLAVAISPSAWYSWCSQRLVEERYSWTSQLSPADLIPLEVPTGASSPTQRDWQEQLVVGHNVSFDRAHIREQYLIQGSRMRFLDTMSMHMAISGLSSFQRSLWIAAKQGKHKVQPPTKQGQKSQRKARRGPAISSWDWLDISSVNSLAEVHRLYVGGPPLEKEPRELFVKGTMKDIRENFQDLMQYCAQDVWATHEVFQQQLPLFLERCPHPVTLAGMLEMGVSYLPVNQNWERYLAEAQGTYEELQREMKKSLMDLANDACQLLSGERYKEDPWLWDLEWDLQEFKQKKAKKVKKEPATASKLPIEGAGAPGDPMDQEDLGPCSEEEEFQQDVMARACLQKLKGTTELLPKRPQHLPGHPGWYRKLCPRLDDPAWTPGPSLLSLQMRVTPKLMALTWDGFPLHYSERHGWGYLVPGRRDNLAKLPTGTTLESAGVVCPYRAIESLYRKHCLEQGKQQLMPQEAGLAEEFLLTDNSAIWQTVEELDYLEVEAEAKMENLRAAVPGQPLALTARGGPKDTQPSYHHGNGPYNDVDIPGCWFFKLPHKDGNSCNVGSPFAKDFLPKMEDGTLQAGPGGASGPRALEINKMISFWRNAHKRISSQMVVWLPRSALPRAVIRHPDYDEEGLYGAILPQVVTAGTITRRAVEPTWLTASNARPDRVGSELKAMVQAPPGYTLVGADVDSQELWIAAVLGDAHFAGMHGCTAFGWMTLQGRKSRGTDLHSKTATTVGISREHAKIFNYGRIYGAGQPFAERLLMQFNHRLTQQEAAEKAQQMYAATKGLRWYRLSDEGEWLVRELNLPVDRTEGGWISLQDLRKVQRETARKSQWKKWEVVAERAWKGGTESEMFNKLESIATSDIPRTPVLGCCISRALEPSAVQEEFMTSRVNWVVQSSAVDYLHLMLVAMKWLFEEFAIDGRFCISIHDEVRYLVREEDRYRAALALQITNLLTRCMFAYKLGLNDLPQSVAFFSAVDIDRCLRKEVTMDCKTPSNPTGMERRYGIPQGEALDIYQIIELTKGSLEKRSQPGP
T1 sequence (Q9UHN1 1-485 partner): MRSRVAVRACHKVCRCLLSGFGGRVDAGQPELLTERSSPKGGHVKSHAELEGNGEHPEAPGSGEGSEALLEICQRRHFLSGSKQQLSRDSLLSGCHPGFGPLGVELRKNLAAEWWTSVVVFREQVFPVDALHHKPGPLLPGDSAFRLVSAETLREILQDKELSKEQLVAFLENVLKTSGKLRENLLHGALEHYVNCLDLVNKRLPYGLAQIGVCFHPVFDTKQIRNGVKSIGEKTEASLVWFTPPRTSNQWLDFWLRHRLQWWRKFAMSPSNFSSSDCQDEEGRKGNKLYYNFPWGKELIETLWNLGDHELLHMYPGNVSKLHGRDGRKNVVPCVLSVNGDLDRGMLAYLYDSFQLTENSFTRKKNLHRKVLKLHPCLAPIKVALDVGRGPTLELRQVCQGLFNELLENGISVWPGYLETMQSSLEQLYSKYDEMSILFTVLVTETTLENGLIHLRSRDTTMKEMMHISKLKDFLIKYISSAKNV
As to the kind of experiment: Exonuclease inhibition assay with human POLγ (SYBR Green I fluorescence). It counts as biochemical. The conditions noted are these: POLγA 1 nM, POLγB 1.3 nM, 5 nM exonuclease template, no dNTPs, 37° C. 2.5 hours. As for the experimental part: Exonuclease inhibition assay with human POLγ.
The ability of small molecules to inhibit the 3′-5′ exonuclease activity of POLγ was analyzed in a quantitative fluorescence SYBR Green I assay with fluorescence intensity (FI) readout.
Human POLγ was incubated with a linear, partially double-stranded template containing an 85 base pair double-stranded DNA stretch and a 15 nucleotides long single-stranded 5′-tail (hereafter referred to as the “exonuclease template”). […] When bound to double-stranded DNA, SYBR Green I fluorescence increases by up to 100-fold. In the absence of deoxynucleotide triphosphates (dNTPs), the exonuclease activity of POLγ degrades the 85-mer strand, which leads to the formation of single-stranded DNA (ssDNA) and decreased fluorescent intensity. The assay was performed in a 384-well plate format.
The exonuclease template used was generated by hybridization of a 100 nucleotides long, single-stranded DNA molecule with an inverted dT at the 3′-end (5′-TTTTTTTTTATCCGGGCTCGTTATCTAAGCTGCTCTTGGTAGGCATTGACGTCCATACTGCAAATTCAGCTCTGTGCAGTTAGGCAGGAGTCTACAAGC invT-3′) to an 85 nucleotides long single-stranded DNA molecule (5′-AGCTTGTAGACTCCTGCCTAACTGCACAGAGCTGAATTTGCAGTATGGACGTCAATGCCTACCAGAGCAGCTTAGATAACGAGC-3′), using a Bio-Rad T100 Thermal Cycler. The inverted dT is characterized by a 3′-3′ linkage, which inhibits both degradation of the 3′-5′ exonuclease activity and extension by DNA polymerases.
POLγ is an heterotrimer of one POLγA subunit (harboring exonuclease and DNA polymerase activities) and two accessory POLγB subunits. Proteins used in the exonuclease assay were POLγA (NP_002684) and POLγB (NP_009146).
The protein mixture used in the assays contained POLγA (1 nM), POLγB (1.3 nM, concentration calculated as a dimer), 25 mM Tris-HCl (pH 8.0), 0.1 mg/mL bovine serum albumin, 1 mM Bond-Breaker TCEP solution (pH 7) [Thermo Fisher], 25 mM NaCl, and 0.02% Triton X-100.
The DNA template mixture used in the assay contained 5 nM of the exonuclease template, 25 mM Tris-HCl (pH 8.0), 10 mM MgCl2, 0.1 mg/mL bovine serum albumin, 1 mM Bond-Breaker TCEP solution [Thermo Fisher], and 0.02% Triton X-100.
Microplates with compounds (0.1 μL in each well) to be tested in the assay were prepared from 10 mM compound stocks in 100% DMSO, and equal amounts of DMSO without any compound were added to positive and negative control wells.
The protein mixture containing POLγ was dispensed (5 μL in each well) into compound plates and incubated at 37° C. for 15 minutes to allow compound binding to the POLγ complex. After incubation, 5 μL of the DNA template mixture was dispensed into each well. The plates were incubated at 37° C. for 2.5 hours.
During incubation, a combined stop buffer and detection reagent solution was prepared. The buffer contained 25 mM EDTA (pH 8.0), 0.02% Triton X-100, and SYBR Green I [Invitrogen] diluted 10,000× (for fluorescent readout). EDTA will stop the enzymatic reaction by chelating magnesium ions.
After the 2.5-hour incubation period, the SYBR Green I solution was added (10 μL) to the screening plates and the plates were incubated at room temperature in the dark for 20 minutes before the fluorescent signal was read between […] on a BMG Pherastar microtiter plate reader.
Consider `Cc1ccc(C)c(S(=O)(=O)Nc2cccc(C(=O)N3CCCCC3C#N)c2)c1` (stereo not shown) [Example 2, N-(3-(2-cyanopiperidine-1-carbonyl)phenyl)-2,5-dimethylbenzenesulfonamide], for which half-maximal inhibition (IC50) was put at 4 µM.
`Cc1cc(S(=O)(=O)Nc2cccc(C(=O)N3CCCC[C@H]3C)c2)c(C)cc1Cl` [Example 9, (R)-4-chloro-2,5-dimethyl-N-(3-(2-methylpiperidine-1-carbonyl)phenyl)benzenesulfonamide] showed an IC50 of 2 µM.
Compound `Cc1cc(S(=O)(=O)Nc2ccc3c(c2)CC(=O)N3)c(C)cc1Cl` [Example 185, 4-chloro-2,5-dimethyl-N-(2-oxoindolin-5-yl)benzenesulfonamide] displayed an IC50 of 6 µM.
With `Cc1ccc(C)c(S(=O)(=O)Nc2cccc(C(=O)N3CCOCC3C#N)c2)c1` (stereo not shown) [Example 7, N-(3-(3-cyanomorpholine-4-carbonyl)phenyl)-2,5-dimethylbenzenesulfonamide] the figure was 1 µM.
The figure for `Cc1ccc(C)c(S(=O)(=O)Nc2cccc(C(=O)N3CCCC[C@H]3C)c2)c1` [Example 5, (R)-2,5-dimethyl-N-(3-(2-methylpiperidine-1-carbonyl)phenyl)benzenesulfonamide] is 3 µM; for `Cc1cc(S(=O)(=O)Nc2cc(F)cc(C(=O)N3CCC[C@H]3C)c2)c(C)cc1Cl` [Example 13, (R)-4-chloro-N-(3-fluoro-5-(2-methylpyrrolidine-1-carbonyl)phenyl)-2,5-dimethylbenzenesulfonamide] it is 6 µM; for `Cc1cc(S(=O)(=O)Nc2cccc(-c3nccs3)c2)c(C)cc1Cl` [Example 16, 4-chloro-2,5-dimethyl-N-(3-(thiazol-2-yl)phenyl)benzenesulfonamide] it is 12 µM.
With `Cc1cc(S(=O)(=O)Nc2cccc(-c3ncco3)c2)c(C)cc1Cl` [Example 17, 4-chloro-2,5-dimethyl-N-(3-(oxazol-2-yl)phenyl)benzenesulfonamide] the figure was more than 100 µM; with `Cc1cc(S(=O)(=O)Nc2cccc(-c3ccn(C)n3)c2)c(C)cc1Cl` [Example 18, 4-chloro-2,5-dimethyl-N-(3-(1-methyl-1H-pyrazol-3-yl)phenyl)benzenesulfonamide], 81 µM.
Regarding `Cc1cc(S(=O)(=O)Nc2cccc(C(=O)N(C)C(C)CO)c2)c(C)cc1Cl` (single isomer, unassigned) [Example 14, 3-((4-chloro-2,5-dimethylphenyl)sulfonamido)-N-(1-hydroxypropan-2-yl)-N-methylbenzamide], the IC50 came out at 3 µM.
With `Cc1cc(S(=O)(=O)Nc2cccc(-c3nccn3C)c2)c(C)cc1Cl` [Example 19, 4-chloro-2,5-dimethyl-N-(3-(1-methyl-1H-imidazol-2-yl)phenyl)benzenesulfonamide] the figure was 8 µM; with `Cc1cc(S(=O)(=O)Nc2cccc(C(=O)N(C)C)c2)c(C)cc1Cl` [Example 12, 3-((4-chloro-2,5-dimethylphenyl)sulfonamido)-N,N-dimethylbenzamide], 5 µM.
For `Cc1ccc(C)c(S(=O)(=O)Nc2cccc(C(=O)N3CCCCC3)c2)c1` [Example 3, 2,5-dimethyl-N-(3-(piperidine-1-carbonyl)phenyl)benzene sulfonamide], the IC50 is 10 µM. This IC50 lies about 2-fold higher than the previous one.
As to `Cc1ccc(C)c(S(=O)(=O)Nc2cccc(C(=O)NCC3CC3)c2)c1` [Example 4, N-(cyclopropylmethyl)-3-((2,5-dimethylphenyl)sulfonamido)benzamide], the IC50 came out at 48 µM.
As to `Cc1ccc(C)c(S(=O)(=O)Nc2cccc(C(=O)N[C@@H](C)C3CC3)c2)c1` [Example 8, (S)-N-(1-cyclopropylethyl)-3-((2,5-dimethylphenyl)sulfonamido)benzamide], 9 µM corresponded to half-maximal inhibition (IC50).
`Cc1cc(S(=O)(=O)Nc2cccc(C(=O)N3CCC[C@H]3C)c2)c(C)cc1Cl` [Example 10, (R)-4-chloro-2,5-dimethyl-N-(3-(2-methylpyrrolidine-1-carbonyl)phenyl)benzenesulfonamide] registered a concentration for half-maximal inhibition (IC50) of 0.8 µM.
The figure for `Cc1cc(S(=O)(=O)Nc2cccc(C(=O)NCc3ccccc3)c2)c(C)cc1Cl` [Example 11, N-benzyl-3-((4-chloro-2,5-dimethylphenyl)sulfonamido)benzamide] is more than 100 µM.
For the compound “(R)-2,5-dimethyl-N-(3-(3-methylmorpholine-4-carbonyl)phenyl)benzenesulfonamide [Example 1]”, inhibition was half-maximal at 7 µM (IC50).
For the compound `Cc1ccc(C)c(S(=O)(=O)Nc2cccc(C(=O)N3CCCC[C@@H]3C)c2)c1` [Example 6, (S)-2,5-dimethyl-N-(3-(2-methylpiperidine-1-carbonyl)phenyl)benzenesulfonamide], the IC50 was 12 µM.
